From US20240271096A1, “EFFICIENT DIFFERENTIATION OF SECOND HEART FIELD CARDIAC PROGENITOR CELLS AND RIGHT VENTRICLE CARDIOMYOCYTES FROM HUMAN PLURIPOTENT STEM CELLS” (Wisconsin Alumni Research Foundation, priority 2023, published 2024)

Test system: SMAD1/5
Experiment: Western blotting of SMAD1/5 phosphorylation in GiWi protocol
Format: cell-based, human
Settings: insulin added on differentiation day 0; measured on day 3
Text: Using the cell lysis solution contained in the Minute Total Protein Extraction Kit for Animal Cultured Cells/Tissues (Invent Biotechnologies, Plymouth, MN, United States) with Protease Inhibitor Cocktail Set III (×100) (Fujifilm Wako Pure Chemical Corporation, Osaka, Japan) and Phosphatase Inhibitor Cocktail Solution II (×100) (Fujifilm Wako Pure Chemical Corporation), cells at day 3 of differentiation were lysed and proteins were extracted according to the manufacturer's instructions. Protein concentration was measured with a Pierce BCA Protein Assay Kit (Thermo Fisher Scientific), iMark microplate reader and Microplate Manager 6 software (Bio-Rad, Hercules, CA, USA). Fifty micrograms of protein combined with Laemmli sample buffer (Bio-Rad) were boiled at 95° C. for 5 minutes and then loaded onto 10% Mini-PROTEAN TGX Precast Gels (Bio-Rad). Proteins were transferred to nitrocellulose membranes and blocking was performed using Tris buffered saline with Tween20 with 5% nonfat dry milk for 1 hour at room temperature. […] Immunoblotted proteins were detected by ECL Prime Western blotting detection reagents and ImageQuant LAS4000 mini (GE Healthcare, Chicago, IL, USA).

Substance: insulin
- phosphorylation of SMAD1/5: suppressed
